Values quoted from earlier work as cited in patent publication US4000310A, “Pharmaceutical compositions containing 6-methyl-3,4-diphenyl-3,4,5,6-tetrahydro-2-pyrone or derivatives thereof” (Union Chimique Continentale-U.C.C, priority 1974, dated 1976).

Tested on: animals
Conditions: caffeine, general statement; cited from earlier work

Cn1c(=O)c2c(ncn2C)n(C)c1=O [caffeine]
sleep inhibiting effect: caffeine does
